For one assay, the target named is wild-type EGFR (Homo sapiens (Human), UniProt P00533). Description: In vitro EGFR kinase activity assay (Z'-Lyte). Format: biochemical. As to conditions: EGFR WT; read-out: Inhibitory activity on EGFR kinase (IC50, nM) WT.
For the next assay, the target named is EGFR-L858R (Homo sapiens (Human), UniProt P00533, L858R). Description: In vitro EGFR kinase activity assay (Z'-Lyte). Format: biochemical. Particulars: read-out: Inhibitory activity on EGFR kinase (IC50, nM) L858R.
The next assay has as its target EGFR-L858R/T790M (Homo sapiens (Human), UniProt P00533, L858R/T790M). Description: In vitro EGFR kinase activity assay (Z'-Lyte). Format: biochemical. As to conditions: read-out: Inhibitory activity on EGFR kinase (IC50, nM) T790M/L858R.
For assay [1], the system named is H1975 (non-small cell lung cancer cells, EGFR L858R/T790M). Nature of the assay: Cell proliferation and growth inhibition analysis. It counts as cell-based. As to conditions: Homo sapiens, NCI-H1975, 72 hours, read-out: Inhibitory activity on cell proliferation (IC50, μM) H1975. As to the method: (§1) Cell proliferation was evaluated by MTS assay. Cells were exposed to the process conditions for 72 hours, and the number of cells for each cell line used in the experiment was adjusted according to the absorbance value (absorbance value at 490 nm was 1.3-2.2). 6 concentration gradients (0.1 nM-10 μM) were set for the compounds to be tested, with six parallel controls for each concentration.
(§2) H1975, HCC827, A549, BT474, MCF-7, SK-BR-3 cells were cultured in the corresponding medium. Upon recovery, the cells were passaged at least two times and then used in experiments. Cells in Log phase were trypsinized and resuspended in the medium. H1975 (1000 cells per well), BT474 (1500 cells per well), MCF-7 (1500 cells per well), HCC827 (2000 cells per well), SK-BR-3 (2000 cells per well), A549 (2000 cells per well) were seeded into 96-well plates, the volume was 100 μL, and 6 rows and 7 columns were set. The plate was placed in an incubator at 37° C. of 5% carbon dioxide overnight. Compounds were dissolved in DMSO to obtain the concentration of […], and then gradually diluted to obtain the concentration of compound as […], 0.1 μM, 0.01 μM, 0.001 μM, 0.0001 μM. 2 μL of compound solution was added into 998 μL of medium, and the resulting mixture was thoroughly mixed. 100 μL of mixture was added into 96-well plate. […] After the cells were cultured for 68 hours, 20 μL of MTT (5 mg/mL) was added. After 4 hours, the supernatant was discarded and 150 μL of DMSO was added. The resulting system was shaken for 10 minutes, and the plate was read with Synergy HT (Bio TeK) (OD490). The data was calculated by GraphPad Prism version 4.0, and IC50 was obtained by non-linear regression model using dose-response curve.

For assay [2], the system named is HCC827 (non-small cell lung cancer cells, EGFR del E746-A750). Nature of the assay: Cell proliferation and growth inhibition analysis. It counts as cell-based. Particulars: Homo sapiens, 72 hours, read-out: Inhibitory activity on cell proliferation (IC50, μM) HCC827. As to the method: as §1, §2
For a further assay, the target named is BLK (Homo sapiens (Human), UniProt P51451). Nature of the assay: BLK kinase activity assay (Caliper). Format: biochemical. As to conditions: read-out: Inhibitory activity on kinase (IC50, nM) BLK. As to the method:
(§3) Preparation of 1× kinase matrix buffer and stop buffer.
(§4) Preparation of compound solution. The compound was dissolved in 100% DMSO to a concentration, which was 50 times of the final highest inhibiting-concentration. 100 μL of the compound solution as said above was transferred into wells of 96-well plate. The above compound solution was sequentially diluted to the final desired concentration. In two blank wells of same 96-well plate, 100 μL of 100% DMSO was added as no-compound and no-kinase control, and this plate was used as the original plate.
(§5) Preparation of intermediate plate. 10 μL of compound solution was transferred from the original plate to another 96-well plate as the intermediate plate; 90 μL of 1× kinase buffer was added into each well of the intermediate plate, and the intermediate plate was shaken for 10 min.
(§6) Preparation of assay plate. 5 μL of solution from each well of intermediate plate was added into a 384-well plate, and repeated controls were set.
(§7) Kinase reaction. 2.5× kinase solution and 2.5× peptide solution were prepared. 2.5× kinase solution was transferred into assay plate. Assay plate comprised 5 μL of the compound solution in 10% DMSO. 10 μL of 2.5× kinase solution was added in each well of 384-well assay plate. […] 2.5× peptide solution was added into each well. After incubated at 28° C. for an appropriate time, 25 μL of stop buffer was added to quench the reaction. Experimental data were collected in Caliper. Curve was fitted.

For the next assay, the target named is FLT3 (Homo sapiens (Human), UniProt P36888). Description: FLT3 kinase activity assay (Caliper). Format: biochemical. Particulars: read-out: Inhibitory activity on kinase (IC50, nM) FLT3. As to the method:
as §3, §4, §5, §6, §7

In US9670213B2, “Pteridine ketone derivative and applications thereof as EGFR, BLK, and FLT3 inhibitor” (EAST CHINA UNIVERSITY OF SCIENCE AND TECHNOLOGY, priority 2012, dated 2017) one finds IC50 data, which are given here for ten compounds.

A value given as a limit tells only on which side of the number the result lay.
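Wherever Inhibitory activity on EGFR kinase (IC50, nM) L858R is given: Cell-free kinase reaction with peptide substrate and ATP, 1.5 h at room temperature, then development step cleaving non-phosphorylated peptide, 10-point dilution series 0.051–1000 nM, phosphopeptide as 100% phosphorylation control.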
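Wherever Inhibitory activity on EGFR kinase (IC50, nM) T790M/L858R is given: Cell-free kinase reaction with peptide substrate and ATP, 1.5 h at room temperature, development cleaving unphosphorylated peptide, 10-point dilution 0.051–1000 nM, phosphopeptide as 100% phosphorylation control.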
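Wherever Inhibitory activity on EGFR kinase (IC50, nM) WT is given: Ten-point dose series from 5.1×10^−11 to 1.0×10^−6 mol/L, kinase reaction 1.5 h at room temperature, then 1 h development cleaving unphosphorylated peptide, phosphopeptide as 100% phosphorylation control.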

Chain of BLK (P51451 whole entry): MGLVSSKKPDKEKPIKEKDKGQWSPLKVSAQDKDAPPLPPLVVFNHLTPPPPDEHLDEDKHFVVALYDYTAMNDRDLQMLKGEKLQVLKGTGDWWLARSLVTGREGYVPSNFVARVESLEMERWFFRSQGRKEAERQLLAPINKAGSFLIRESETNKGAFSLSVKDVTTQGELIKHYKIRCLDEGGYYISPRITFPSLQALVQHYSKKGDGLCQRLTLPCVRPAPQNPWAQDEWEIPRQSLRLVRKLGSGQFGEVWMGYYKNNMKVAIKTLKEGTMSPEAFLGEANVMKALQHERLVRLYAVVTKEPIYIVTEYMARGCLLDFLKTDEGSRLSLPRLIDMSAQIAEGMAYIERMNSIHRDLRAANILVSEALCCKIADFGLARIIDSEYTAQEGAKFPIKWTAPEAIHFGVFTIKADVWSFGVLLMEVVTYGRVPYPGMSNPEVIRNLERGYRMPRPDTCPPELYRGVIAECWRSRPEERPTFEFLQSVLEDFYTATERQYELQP
Chain of FLT3 (P36888 27-993): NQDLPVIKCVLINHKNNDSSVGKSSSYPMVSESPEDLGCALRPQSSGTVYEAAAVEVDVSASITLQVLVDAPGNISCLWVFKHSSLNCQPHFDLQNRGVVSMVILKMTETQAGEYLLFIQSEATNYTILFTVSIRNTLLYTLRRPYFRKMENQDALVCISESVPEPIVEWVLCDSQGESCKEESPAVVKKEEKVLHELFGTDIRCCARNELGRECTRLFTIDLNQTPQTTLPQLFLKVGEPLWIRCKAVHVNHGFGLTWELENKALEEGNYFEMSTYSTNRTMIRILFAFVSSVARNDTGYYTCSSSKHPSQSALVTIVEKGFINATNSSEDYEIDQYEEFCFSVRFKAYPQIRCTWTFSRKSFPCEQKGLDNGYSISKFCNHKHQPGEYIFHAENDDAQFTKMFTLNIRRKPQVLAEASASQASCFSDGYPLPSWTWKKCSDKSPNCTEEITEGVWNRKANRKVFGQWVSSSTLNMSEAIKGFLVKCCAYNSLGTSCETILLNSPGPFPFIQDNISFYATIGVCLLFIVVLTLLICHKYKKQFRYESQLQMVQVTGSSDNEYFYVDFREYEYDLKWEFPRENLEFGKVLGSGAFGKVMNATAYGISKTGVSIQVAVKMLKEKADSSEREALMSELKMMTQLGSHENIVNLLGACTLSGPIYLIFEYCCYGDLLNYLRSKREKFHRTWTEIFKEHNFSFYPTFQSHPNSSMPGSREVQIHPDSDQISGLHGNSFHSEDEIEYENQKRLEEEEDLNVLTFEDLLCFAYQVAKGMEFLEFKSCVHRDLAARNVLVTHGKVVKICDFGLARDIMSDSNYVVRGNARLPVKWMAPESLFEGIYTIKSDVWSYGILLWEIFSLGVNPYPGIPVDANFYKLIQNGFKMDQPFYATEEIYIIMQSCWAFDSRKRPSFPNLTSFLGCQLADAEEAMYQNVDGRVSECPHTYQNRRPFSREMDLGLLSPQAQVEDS
Chain of EGFR-L858R/T790M (P00533 25-1210 T790M/L858R): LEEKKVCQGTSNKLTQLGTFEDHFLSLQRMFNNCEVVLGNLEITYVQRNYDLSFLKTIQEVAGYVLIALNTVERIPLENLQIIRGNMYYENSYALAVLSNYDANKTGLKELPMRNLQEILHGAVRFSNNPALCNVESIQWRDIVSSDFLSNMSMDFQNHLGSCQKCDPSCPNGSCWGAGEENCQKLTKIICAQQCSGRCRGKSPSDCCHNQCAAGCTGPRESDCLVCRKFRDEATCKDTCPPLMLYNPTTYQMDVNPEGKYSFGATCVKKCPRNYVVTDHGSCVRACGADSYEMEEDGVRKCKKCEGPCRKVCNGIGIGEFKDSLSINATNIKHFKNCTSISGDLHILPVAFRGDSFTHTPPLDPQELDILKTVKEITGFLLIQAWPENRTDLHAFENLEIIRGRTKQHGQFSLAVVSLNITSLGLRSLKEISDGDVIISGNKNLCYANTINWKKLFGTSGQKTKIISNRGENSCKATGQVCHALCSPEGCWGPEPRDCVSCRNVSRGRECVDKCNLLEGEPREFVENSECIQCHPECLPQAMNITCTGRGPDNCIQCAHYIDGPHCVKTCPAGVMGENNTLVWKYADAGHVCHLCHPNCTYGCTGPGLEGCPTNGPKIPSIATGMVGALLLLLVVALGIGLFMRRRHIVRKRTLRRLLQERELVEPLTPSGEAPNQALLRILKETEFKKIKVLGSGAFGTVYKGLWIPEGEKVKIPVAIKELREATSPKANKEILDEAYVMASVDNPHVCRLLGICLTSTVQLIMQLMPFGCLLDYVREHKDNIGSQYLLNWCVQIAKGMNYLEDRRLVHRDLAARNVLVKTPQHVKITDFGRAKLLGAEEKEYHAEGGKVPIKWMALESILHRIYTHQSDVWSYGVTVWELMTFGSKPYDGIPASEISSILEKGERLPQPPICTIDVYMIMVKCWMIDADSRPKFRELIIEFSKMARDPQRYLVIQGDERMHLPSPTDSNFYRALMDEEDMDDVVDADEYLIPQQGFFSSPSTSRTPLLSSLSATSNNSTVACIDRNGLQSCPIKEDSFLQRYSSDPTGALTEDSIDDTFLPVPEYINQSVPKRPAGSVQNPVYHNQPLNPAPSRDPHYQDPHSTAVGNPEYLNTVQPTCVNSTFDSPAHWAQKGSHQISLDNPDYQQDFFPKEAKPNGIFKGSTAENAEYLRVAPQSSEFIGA
Chain of EGFR-L858R (P00533 25-1210 L858R): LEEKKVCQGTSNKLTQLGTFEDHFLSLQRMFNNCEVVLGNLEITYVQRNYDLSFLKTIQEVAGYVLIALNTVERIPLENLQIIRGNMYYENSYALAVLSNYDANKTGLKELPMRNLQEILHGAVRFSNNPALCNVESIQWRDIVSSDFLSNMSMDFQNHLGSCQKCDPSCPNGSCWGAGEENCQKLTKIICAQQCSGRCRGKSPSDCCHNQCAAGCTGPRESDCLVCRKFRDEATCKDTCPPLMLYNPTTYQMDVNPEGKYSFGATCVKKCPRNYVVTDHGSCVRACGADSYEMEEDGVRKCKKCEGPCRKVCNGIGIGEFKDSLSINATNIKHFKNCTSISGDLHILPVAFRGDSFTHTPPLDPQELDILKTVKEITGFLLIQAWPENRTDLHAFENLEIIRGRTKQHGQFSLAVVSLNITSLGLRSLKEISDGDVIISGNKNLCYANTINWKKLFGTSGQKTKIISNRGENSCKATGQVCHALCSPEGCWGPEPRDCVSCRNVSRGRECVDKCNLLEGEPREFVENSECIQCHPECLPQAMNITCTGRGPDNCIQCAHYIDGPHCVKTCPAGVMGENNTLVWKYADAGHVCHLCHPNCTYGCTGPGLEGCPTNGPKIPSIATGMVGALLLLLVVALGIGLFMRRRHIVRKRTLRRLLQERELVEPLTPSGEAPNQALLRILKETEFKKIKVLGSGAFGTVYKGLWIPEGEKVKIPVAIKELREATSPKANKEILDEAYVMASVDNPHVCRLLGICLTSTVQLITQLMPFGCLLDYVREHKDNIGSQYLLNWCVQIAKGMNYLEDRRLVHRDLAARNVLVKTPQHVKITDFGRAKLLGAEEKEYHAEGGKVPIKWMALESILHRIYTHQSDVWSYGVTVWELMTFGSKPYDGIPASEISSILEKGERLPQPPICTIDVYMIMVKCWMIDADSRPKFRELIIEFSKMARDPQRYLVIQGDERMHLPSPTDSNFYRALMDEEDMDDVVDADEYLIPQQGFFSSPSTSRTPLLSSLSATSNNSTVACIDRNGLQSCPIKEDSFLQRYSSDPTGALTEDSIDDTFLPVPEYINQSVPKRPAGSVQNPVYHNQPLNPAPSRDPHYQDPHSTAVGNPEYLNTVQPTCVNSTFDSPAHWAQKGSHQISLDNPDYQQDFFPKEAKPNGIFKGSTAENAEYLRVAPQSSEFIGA
Chain of wild-type EGFR (P00533 25-1210): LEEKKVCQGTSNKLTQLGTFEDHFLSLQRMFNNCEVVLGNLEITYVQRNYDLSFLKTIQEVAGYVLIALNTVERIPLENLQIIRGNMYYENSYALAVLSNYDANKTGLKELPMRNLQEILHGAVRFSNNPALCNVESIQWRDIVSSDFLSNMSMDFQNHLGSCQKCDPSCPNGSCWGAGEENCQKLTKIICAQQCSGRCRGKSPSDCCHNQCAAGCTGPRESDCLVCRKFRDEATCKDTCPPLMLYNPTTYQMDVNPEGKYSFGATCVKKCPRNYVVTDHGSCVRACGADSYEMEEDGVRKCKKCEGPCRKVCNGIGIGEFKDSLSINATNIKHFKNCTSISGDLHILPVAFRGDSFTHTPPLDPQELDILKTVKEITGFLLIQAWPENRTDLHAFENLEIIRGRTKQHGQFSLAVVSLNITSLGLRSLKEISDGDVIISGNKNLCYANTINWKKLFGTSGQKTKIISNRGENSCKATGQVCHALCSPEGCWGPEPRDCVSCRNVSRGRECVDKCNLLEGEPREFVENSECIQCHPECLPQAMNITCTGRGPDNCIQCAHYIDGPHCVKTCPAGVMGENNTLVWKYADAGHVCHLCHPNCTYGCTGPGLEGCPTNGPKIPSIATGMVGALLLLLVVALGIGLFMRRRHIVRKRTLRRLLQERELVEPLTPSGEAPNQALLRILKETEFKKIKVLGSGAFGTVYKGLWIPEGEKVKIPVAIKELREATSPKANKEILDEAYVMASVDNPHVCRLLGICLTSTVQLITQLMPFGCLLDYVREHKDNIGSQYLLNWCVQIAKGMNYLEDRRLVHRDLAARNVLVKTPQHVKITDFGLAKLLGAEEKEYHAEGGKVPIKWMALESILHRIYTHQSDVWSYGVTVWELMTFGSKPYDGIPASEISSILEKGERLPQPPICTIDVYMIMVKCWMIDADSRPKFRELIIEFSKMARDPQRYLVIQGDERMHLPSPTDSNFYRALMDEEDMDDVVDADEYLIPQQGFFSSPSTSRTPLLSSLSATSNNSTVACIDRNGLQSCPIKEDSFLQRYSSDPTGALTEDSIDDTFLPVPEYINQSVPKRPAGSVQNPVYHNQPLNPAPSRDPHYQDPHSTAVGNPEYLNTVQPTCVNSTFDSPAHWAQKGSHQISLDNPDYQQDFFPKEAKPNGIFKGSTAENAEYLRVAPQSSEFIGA
Experimental for wild-type EGFR: Inhibitory effects in vitro of the compounds provided in the present invention on EGFR kinase activity was tested as follows:
10 concentration gradients, from 5.1×10^−11 mol/L to 1.0×10^−6 mol/L, were set for all of the compounds to be tested.
10 μL of kinase reaction system comprised 2.5 μL of compound solution, 5 μL of Kinase/peptide mixture, and 2.5 μL of ATP solution. 5 μL of phosphopeptide solution was used in place of kinase/peptide mixture as 100% phosphorylation control. […] After thoroughly mixing the solution within the plate, the plate was incubated at room temperature for 1.5 hours. 5 μL of DevelopmentSolution was added into each well, and then the plate was incubated at room temperature for another 1 hour, and non-phosphorylated peptide was cleaved within this period. Finally, the reaction was quenched by adding 5 μL of Stop Reagent. The Plate was measured with EnVision Multilabel Reader (Perkin Elmer). Experimental data were calculated by using GraphPad Prism version 4.0. Each experiment was repeated more than three times.

Regarding `C=CC(=O)Oc1ccc(-n2c(=O)cnc3cnc(Nc4ccc(OC)cc4)nc32)cc1` [Compound 011, 4-(2 (4-methoxyphenylamino)-7-oxo-8(7H)-pteridin-yl)phenyl acrylate], the IC50 on wild-type EGFR was 67 nM; on EGFR-L858R it was 84.8 nM; on EGFR-L858R/T790M, 70.3 nM; in assay [1], 5.6 µM; in assay [2] it was 2.29 µM; on BLK, 89 nM. Besides, the IC50 at FLT3 amounted to 48 nM.
Take `CN(C)C/C=C/C(=O)Nc1ccc(-n2c(=O)cnc3cnc(Nc4ccccc4)nc32)cc1` [Compound 012, 4-(dimethylamino)-N-(4-(7-oxo-2-(phenylamino)-8(7H)-pteridin-yl)phenyl)-2-buteneamide]: the IC50 was determined as 5980 nM on wild-type EGFR; 5340 nM on EGFR-L858R; 1920 nM at EGFR-L858R/T790M; 18.9 µM in assay [1]; 4.42 µM in assay [2]; 6320 nM on BLK. On FLT3, the IC50 came out at 160 nM.
Take `CN(C)C/C=C/C(=O)Nc1cccc(-n2c(=O)cnc3cnc(Nc4ccccc4)nc32)c1` [Compound 013, 4-(dimethylamino)-N-(3-(7-oxo-2-(phenylamino)-8(7H)-pteridin-yl)phenyl)-2-buteneamide]: the IC50 was 171 nM on BLK and 3780 nM at FLT3.
As for `C=CC(=O)Nc1ccc(-n2c(=O)cnc3cnc(Nc4ccccc4)nc32)cc1` [Compound 014, N-(4-(7-oxo-2-(phenylamino)-8(7H)-pteridin-yl)phenyl) acrylamide], the IC50 was 16.1 nM on wild-type EGFR; 26.4 nM at EGFR-L858R; 113 nM at EGFR-L858R/T790M; 77.8 µM in assay [1]; 68.1 µM in assay [2]; 7480 nM on BLK. At FLT3, the IC50 was found to be 129 nM.
As to `C=CC(=O)Nc1cccc(-n2c(=O)cnc3cnc(Nc4ccccc4)nc32)c1` [Compound 015, N-(3-(7-oxo-2-(phenylamino)-8(7H)-pteridin-yl)phenyl)acrylamide], the figures for the IC50 (in assay [1]; on FLT3) were 0.437 µM and 1860 nM, respectively.
With `C=CC(=O)Nc1ccc(-n2c(=O)cnc3cnc(Nc4ccc(Cl)cc4)nc32)cc1` [Compound 016, N-(4-(2-(4-chlorophenylamino)-7-oxo-8(7H)-pteridin-yl)phenyl) acrylamide], the IC50 on wild-type EGFR is 7580 nM; at EGFR-L858R it was 116 nM; at EGFR-L858R/T790M, 1490 nM; in assay [1], 20.8 µM; in assay [2], 68.7 µM; on BLK it was > 10000 nM. For the same compound, the IC50 at FLT3 came to 358 nM.
As for `C=CC(=O)Nc1cccc(-n2c(=O)cnc3cnc(Nc4ccc(Cl)cc4)nc32)c1` [Compound 017, N-(3-(2-(4-chlorophenylamino)-7-oxo-8(7H)-pteridin-yl)phenyl) acrylamide], the IC50 at wild-type EGFR turned out to be 67 nM; on EGFR-L858R, 84.8 nM; at EGFR-L858R/T790M, 70.3 nM; in assay [1] it was 0.82 µM; in assay [2] it was 0.163 µM; on BLK, 156 nM. The IC50 on FLT3 amounted to 2820 nM.
Regarding `C=CC(=O)Nc1cccc(-n2c(=O)cnc3cnc(Nc4ccc(N5CCOCC5)cc4)nc32)c1` [Compound 018, N-(3-(2-(4-morpholinophenylamino)-7-oxo-8(7H)-pteridin-yl)phenyl) acrylamide], the IC50 on wild-type EGFR is 7.94 nM; on EGFR-L858R it was 5.83 nM; on EGFR-L858R/T790M it was 3.02 nM; in assay [1], 0.216 µM; in assay [2], 0.017 µM; on BLK, 41 nM. Further, the IC50 on FLT3 was 798 nM.
Take `C=CC(=O)Nc1cccc(-n2c(=O)c(C)nc3cnc(Nc4ccc(OC)cc4)nc32)c1` [Compound 026, N-(3-(2-(4-methoxyphenylamino)-6-methyl-7-oxo-8(7H)-pteridin-yl)phenyl) acrylamide]: the IC50 was found to be 96 nM at BLK and 568 nM at FLT3.
Turning to `C=CC(=O)Nc1cccc(Oc2nc(Nc3ccc(N4CCN(C)CC4)cc3OC)ncc2Cl)c1` [WZ4002, reference compound], the IC50 was found to be 0.039 µM in assay [1] and 0.014 µM in assay [2].
